# Experiments:
# Assay in all cases: Fungicidal effect on infected agar nutrient media, colony diameter
# Type in all cases: cell-based
# Penicillium cyclopium = conditions: 7th day after treatment, untreated 26.5
# Procedure, shortened: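 Agar media (70 mm diameter, 10 mm thick) infected with Penicillium cyclopium were treated with EC formulations at 1, 10, 100 and 1000 ppm active ingredient. Fungal colony diameter was measured on day 7 after treatment.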
# Alternaria tenuis = conditions: 5th day after treatment, untreated control 36.8
# Procedure, shortened: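 Agar media (70 mm diameter, 10 mm thick) infected with Alternaria tenuis, treated with EC formulations at 1, 10, 100 and 1000 ppm active ingredient. Fungicidal effect read on day 5 after treatment as fungal colony diameter.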
# Sclerotinia sclerotinia = conditions: 3rd day after treatment, untreated control 41.7
# Method: Agar nutrient media (Diameter 70 MM, thickness 10 mm) infected by Sclerotonia sclerotinia suspension are treated with 20 EC formulations prepared according to Example 27 and comprising 1, 10, 100 and 1000 ppm, respectively of the active ingredient of the Formula I. The fungicidal effect of the compositions is evaluated on the 3rd day after treatment by measuring the diameter of the Fungi colonies.
Structure (SMILES),Diameter of colony (mm) (Penicillium cyclopium; 1 ppm),Diameter of colony (mm) (Penicillium cyclopium; 10 ppm),Diameter of colony (mm) (Penicillium cyclopium; 100 ppm),Diameter of colony (mm) (Penicillium cyclopium; 1000 ppm),Diameter of colony (mm) (Alternaria tenuis; 1 ppm),Diameter of colony (mm) (Alternaria tenuis; 10 ppm),Diameter of colony (mm) (Alternaria tenuis; 100 ppm),Diameter of colony (mm) (Alternaria tenuis; 1000 ppm),Diameter of colony (mm) (Sclerotinia sclerotinia; 1 ppm),Diameter of colony (mm) (Sclerotinia sclerotinia; 10 ppm),Diameter of colony (mm) (Sclerotinia sclerotinia; 100 ppm),Diameter of colony (mm) (Sclerotinia sclerotinia; 1000 ppm)
"CC1OP(=S)(OCCCl)SC1C (stereo not drawn) [Compound 16, 2-(0-2'-chloroethyl)-2-thio-4,5-dimethyl-1,3,2-oxathiophospholane]",23.2,18.1,6.6,0,34.4,22.0,6.3,0,39.4,27.6,1.7,0
"CCCOP1(=S)OCC(C)S1 (stereo not drawn) [Compound 48, 2-(0-n-propyl)-2-thio-4-methyl-1,3,2-oxathiophospholane]",24.2,19.2,8.5,0,36.1,24.6,6.3,0,35.8,29.1,2.8,0
CC(CBr)OP1(=S)OC(C)CS1 (stereo not drawn) [Compound 20],20.1,17.7,4.1,0,33.2,25.0,5.0,0,34.9,28.2,1.6,0
CCCCOP1(=S)OC(C)CS1 (stereo not drawn) [Compound 64],26.0,20.0,8.7,0,34.6,26.1,4.5,0,36.9,28.7,3.0,0

# — patent US4877893A, “Process for the preparation of 2-(O-alkyl)-2-thio-1,3,2-oxathiophospholanes” (priority 1987, dated 1989)
